In patent EP0139358B1, “N6-substituted diarylalkyl adenosines, processes for their production and pharmaceutical compositions comprising the same” (priority 1983, dated 1985):
Read-outs that look alike come from different tables or passages of the source.

What was measured:
Swiss-Webster male mice [1] = assay: Mouse Activity and Screen Test (MAST): inhibition of spontaneous locomotion (LI); assay type: in vivo; details: for Inhibition of mouse locomotor activity: one hour prior to testing, vs vehicle; for minimal effective dose: Mus musculus, ip, read-out: MAST LI LAD
Experimental: (§1) Treatments are administered intraperitoneally one hour prior to testing. […] Compounds are dissolved or suspended in 0.2% Methocel. Control animals are injected with Methocel.
Immediately following the screen test, the final phase of testing is initiated by placing each group of three mice in one actophotometer (Life Sciences, 22, 1067-1076, 1978). The actophotometer consists of a cylindrical chamber whose center is occupied by another cylinder which contains the illumination for six photocells located on the perimeter of the chamber. Six light-beam interruptions equal one count. Locomotor activity is recorded by computer at ten minute intervals for 60 minutes. […]

rat heart = assay: Coronary blood flow (PCS2A): isolated perfused heart; details: for EC50: isolated perfused rat heart
Experimental: CORONARY BLOOD FLOW (PCS2A)
Male rats (400-600 gms) are pretreated with Na haparin 2000 units and anesthetized with Na pentobarbital (50 mg/kg) administered intraperitoneally. Once anesthetized, the rat heart is rapidly excised, the ascending aorta fitted to the aortic perfusion cannula, and […] with a ligature. The coronary arteries are perfused initially at a rate of about 15 ml/min for two to three minutes, afterwhich they are perfused at constant pressure of 70 mm Hg and temperature of 37°C. The electrocardiogram (ECG) is recorded using two platinum electrodes positioned at the base and apex of the left ventricle. A second heart is excised, cannulated, and perfused by the same method outlined above. Both hearts are tested in parallel. The standard physiological salt solution (PSS) is a modified Krebs-Hanseleit bicarbonate buffer of the following composition in mM concentration: NaCI, 127; NaHC03, 25; dextrose, 5.5; Na Pyruvate, 2.0: KCI, 4.7; MgS04, 1.1; KH 2P04, 1.2; CaCl2·2H2O, 2.5; CaNa2 EDTA, 0.05.
A 30-minute stabilization period is observed before starting the test protocol.
The microprocessor control system is a servo mechanism which permits coronary perfusion pressure (CPP) and drug concentration to be maintained constant independent of changes in coronary flow. The level at which CPP and drug concentration are maintained can be changed by commands communicated through the microprocessor keyboard. Dose-response curves are carried out by perfusing concentrated drug solution (DC) at rates proportional to total coronary flow (CFT). Drug concentrations are increased by proportionate increases in the rate of DC infusion over CFT via the microprocessor keyboard. The proportional flow rates for DC:CFT is about .0002:1 at the low end and .02: at the high end of the dose-response curve. Dose-response curves encompassing at least two log doses are carried out by preparing two DCs with a concentration difference of 1:100. Following the first dose range of two log doses, the DC are switched, proportional pumping rate adjusted, and the dose-response curve continued for another two log doses. The standard dose-response curve is carried out in one-half log dose increments starting at a subthreshold dose and ending at a dose which produces near maximal response in activity. Standard reference compounds are tested over the range of 10-^9 to 10-^6M.
Measurements are for heart rate (HR) and coronary flow (CF). Units are: HR, beats/minute (bpm) and CF, milliliters/minute (ml/min). HR is calculated from the ECG strip chart recording and CF is calculated by recording analog outputs from pumps 1 and 2. Outputs from pump #1 = CFT and the output from pump #2 = CF for heart B (CFg). CF for heart A (CFA) is calculated (CFT - CFB = CFA).
Using the above technique, the effects of the compound of Examples 1 and 2 are as follows: […]

conscious rat = assay: Antihypertensive evaluation (AHP3): aortic blood pressure and heart rate; assay type: in vivo; details: lowest dose tested at which a >10% reduction in blood pressure for four consecutive hours is achieved; conscious rat; read-out: AHP3 BP LAD
Excerpt: […] EVALUATION (AHP3)
This test procedure is described in the following paragraphs.
A Method for the Direct Monitoring of Aortic Blood Pressure and Heart Rate from Conscious Rats
The continuous monitoring of pulsatile blood pressure (BP) from unrestrained conscious rats surgically equipped with polyethylene cannulas was accomplished by means of a computer assisted data capture scheme (CADCS). The absic elements of the methodology are the cannulation procedure and the CADCS.
Cannulation Procedure: Rats were anesthetized with Telazol (1:1 tiletamine HCI and zolazepam HCI); 20-40 mg/kg IM and the descending aorta exposed via a midline incision. Cannulas fabricated from polyethylene tubing were inserted into the aorta via an undersized puncture hole below the renal arteries. The puncture hole was made by a 23 G disposable needle with a section of the aorta clamped off above and below the puncture site. The cannulas, consisting of a PE100 (0.86 mm ID) body and a PE50 (0.58 mm ID) tip, were attached to a trocar, inserted through the psoas muscle, and passed subcutaneously along the midline of the back and externalized between the ears. The cannulas were anchored to the psoas muscle and between the scalulae (3-0 green braided suture). The midline incision was closed in two steps (muscle first, skin second) using continuous over-and over sutures (4-0 chronic). Each rat was then given penicillin 30,000 units subcutaneously (Penicillin G Procaine Sterile Suspension).
The rats were fitted with a harness-spring-swivel assembly designed to protect the cannula and to provide the rat relative freedom of movement. The harnesses were fabricated from nylon hook and loop tape cemented to a metal plate to which spring wires (18-8 stainless steel), were attached to brass swivels. Each polyethylene cannula was channeled through a spring and connected through a swivel to a pressure transducer (Model P23Gb; Statham Instruments; Hato Rey, Puerto Rico) and an infusion pump (Sage model 234-7; Orion Research, Cambridge, Ma) by means of PE100 tubing. While on test, each rat received a continuous slow infusion of heparinized saline solution (approximately 400 I or 40 units of heparin per 24 hour period) to prevent clot formation. Additional "flushes" of the cannula with heparinized saline were carried out when the aortic pulse pressure (systolic minus diastolic) was less than 25 mm Hg.
CADCS: The pulsatile blood pressure and heart rate of each of 32 rats was monitored every minute by means of two in-laboratory microcomputers communicating directly with a data concentrator computer. The data were first stored on the data concentrator disk and then transferred to a magnetic tape for analysis and report generation by the main research computer. The overall scheme involved modulating the primary signal from the pressure transducer, generating the primary data set of the one-minute values for systolic, diastolic, and mean blood pressures and heart rate by the in-lab microcomputer and the storage, analysis, and report generation by the main research computer.
The transducers were connected to analog signal conditioning modules. The modules providing a regulated excitation voltage for the transducers, amplification as required to interface the microprocessors and an active low pass filter to compensate for the pressure wave form distortion produced by the flexible, fluid filled, narrow cannula.
The microcomputers (one for each of two groups of 16 rats) were connected to the input components through the module interface units, an analog-to-digital converter for the pressure wave form signal and the digital inputs for the dose and event marker switches. The microcomputer controlled the sequential acquisition of data from the modular interface units through an internal synchronous time-of-day clock/ time base generator. […]

Swiss-Webster male mice [2] = assay: Mouse Activity and Screen Test (MAST): screen test (ST); assay type: in vivo; details: for Inhibition of screen test failure: percent of mice falling off the screen; for MAST ST LAD: lowest dose at which an A rating (60-100%) is achieved, screen test, intraperitoneally
Experimental: as §1
The compounds are identified in the Examples.

[3] = coronary flow, read-out: PCS2A CF ED50
[4] = heart rate, read-out: PCS2A HR ED50

Compound	minimal effective dose (Swiss-Webster male mice [1]) [mg/kg]	EC50 (rat heart; [3]) [nM]	EC50 (rat heart; [4]) [nM]	minimal effective dose (conscious rat) [mg/kg]	MAST ST LAD (Swiss-Webster male mice [2]) [mg/kg]	other results
OC[C@H]1O[C@@H](n2cnc3c(NCCC(c4ccccc4)c4ccccc4)ncnc32)[C@H](O)[C@@H]1O [Example 2, N^6-(3,3-Diphenylpropyl)adenosine]	100	3000	6000	> 30	>100	Inhibition of mouse locomotor activity (Swiss-Webster male mice [1]; 10 mg/kg intraperitoneally): −9%; Inhibition of mouse locomotor activity (Swiss-Webster male mice [1]; 30 mg/kg intraperitoneally): 13%; Inhibition of mouse locomotor activity (Swiss-Webster male mice [1]; 100 mg/kg intraperitoneally): 60%; activation at 1 µM (rat heart; Dose 1 × 10^-6 Molar, coronary flow change, isolated rat heart, read-out: CF): 47%; activation at 0.1 µM (rat heart; Dose 1 × 10^-7 Molar, coronary flow change, isolated rat heart, read-out: CF): 42%; activation at 0.01 µM (rat heart; Dose 1 × 10^-8 Molar, coronary flow change, isolated rat heart, read-out: CF): 26%; activation at 3 µM (rat heart; Dose 3 × 10^-6 Molar, coronary flow change, isolated rat heart, read-out: CF): 48%; Inhibition of screen test failure (Swiss-Webster male mice [2]; 10 mg/kg intraperitoneally): 0%; Inhibition of screen test failure (Swiss-Webster male mice [2]; 30 mg/kg intraperitoneally): 0%; Inhibition of screen test failure (Swiss-Webster male mice [2]; 100 mg/kg intraperitoneally): 0%
OC[C@H]1O[C@@H](n2cnc3c(NCCCC(c4ccccc4)c4ccccc4)ncnc32)[C@H](O)[C@@H]1O [Example 6, N^6-(4,4-Diphenylbutyl)adenosine]	100	14	> 1000	> 30	>100	–
OC[C@H]1O[C@@H](n2cnc3c(NCCCCC(c4ccccc4)c4ccccc4)ncnc32)[C@H](O)[C@@H]1O [Example 7, N^6-(5,5-Diphenylpentyl)adenosine]	100	> 3000	3000	> 10	>100	–
Cc1cccc(C(CNc2ncnc3c2ncn3[C@@H]2O[C@H](CO)[C@@H](O)[C@H]2O)c2ccccc2)c1 (stereo partly shown) [Example 9, N^6-(2-(3-Methylphenyl)-2-phenylethyl)adenosine]	≤ 10	–	–	–	100	–
OC[C@H]1O[C@@H](n2cnc3c(NCC(c4ccccc4)c4ccc(F)cc4)nc(Cl)nc32)[C@H](O)[C@@H]1O (stereo partly shown) [Example 11, N^6-(2-(4-Fluorophenyl)-2-phenylethyl)-2-chloroadenosine]	30	50	> 3000	10	>100	–
OC[C@H]1O[C@@H](n2cnc3c(NCC(c4ccc(F)cc4)c4ccc(F)cc4)ncnc32)[C@H](O)[C@@H]1O [Example 13, ^N'-(^2,2-Di-(4-fluorophenyl)ethyl)adenosine]	3	–	–	10	>100	–
OC[C@H]1O[C@@H](n2cnc3c(NCC(c4ccccc4)c4cccc(Cl)c4)ncnc32)[C@H](O)[C@@H]1O (stereo partly shown) [Example 14, N^6-(2-(3-Chlorophenyl)-2-phenylethyl)adenosine]	1	–	–	–	>100	–
Nc1nc(NCC(c2ccccc2)c2ccc(Cl)cc2)c2ncn([C@@H]3O[C@H](CO)[C@@H](O)[C@H]3O)c2n1 (stereo partly shown) [Example 16, N^6-(2-(4-Chlorophenyl)-2-phenylethyl)-2-aminoadenosine]	100	–	–	> 10	>100	–
OC[C@H]1O[C@@H](n2cnc3c(NCC(c4ccc(Cl)cc4)c4ccc(Cl)cc4)ncnc32)[C@H](O)[C@@H]1O [Example 17, N^6-(2,2-Di(4-chlorophenyl)ethyl)adenosine]	100	> 3000	> 3000	–	>100	–
Nc1nc(NCC(c2ccc(Cl)cc2)c2ccc(Cl)cc2)c2ncn([C@@H]3O[C@H](CO)[C@@H](O)[C@H]3O)c2n1 [Example 18, N^6-(2,2-Di-(4-chlorophenyl)ethyl)-2-aminoadenosine]	> 30	–	–	> 10	>30	–
COC(=O)C(CNc1ncnc2c1ncn2[C@@H]1O[C@H](CO)[C@@H](O)[C@H]1O)(c1ccccc1)c1ccccc1 [Example 24, N^s-(2-Carbomethoxy-2,2-diphenylethyl)adenosine]	30	> 3000	3000	–	>30	–
O=C(OC[C@H]1O[C@@H](n2cnc3c(NCC(c4ccccc4)c4ccccc4)ncnc32)[C@H](OC(=O)c2ccccc2)[C@@H]1OC(=O)c1ccccc1)c1ccccc1 [Example 26, 2',3',5'-Tri-0-benzoyl-N^6-(2,2-diphenylethyl)adenosine]	10	–	–	10	>100	–
CC(=O)OC[C@H]1O[C@@H](n2cnc3c(NCC(c4ccccc4)c4ccccc4)nc(Cl)nc32)[C@H](OC(C)=O)[C@@H]1OC(C)=O [Example 27, 2',3',5'-Tri-O-acetyl-N^6-(2,2-diphenylethyl)-2-chloroadenosine]	30	–	–	–	>100	–
O=P(O)(O)OC[C@H]1O[C@@H](n2cnc3c(NCC(c4ccccc4)c4ccccc4)ncnc32)[C@H](O)[C@@H]1O [Example 28, N^6-(2,2-Diphenylethyl)adenosine-5'-phosphate]	≤ 3	–	–	–	>30	–
CC1(C)O[C@@H]2[C@H](O1)[C@@H](CO)O[C@H]2n1cnc2c(NCC(c3ccccc3)c3ccccc3)ncnc21 [Example 29, 2',3'-0-Isopropylidene-N6-(2,2-diphenylethyl)adenosine]	30	–	–	10	>100	–
